ChEMBL document CHEMBL4393717, “Development of novel human lactate dehydrogenase A inhibitors: High-throughput screening, synthesis, and biological evaluations” (Eur J Med Chem, 2019)
Calls of active or inactive are those of the source. The rule behind the calls is not given here.

Columns and labels:
[1] = tested on: MIA PaCa-2; assay: Cell cycle arrest in human MIAPaCa2 cells assessed as accumulation at S phase at 10 uM incubated for 24 hrs by propidium iodide staining based flow cytometry (reference value: 12.99%); type: functional
[2] = tested on: MIA PaCa-2; assay: Induction of apoptosis in human MIAPaCa2 cells incubated for 12 hrs by Annexin V-FITC/propidium iodide staining based flow cytometry; type: functional, cell-based
[3] = biological target: T1, L-lactate dehydrogenase A chain (Homo sapiens, UniProt P00338); assay: Inhibition of recombinant human full-length N-terminal His-tagged LDHA (1 to 332 residues) expressed in Escherichia coli using sodium pyruvate as substrate incubated for 10 mins
[4] = tested on: MIA PaCa-2; assay: Inhibition of colony formation in human MIAPaCa2 cells treated for 3 days and supplemented with fresh medium with out compound every 3 days measured after 15 days by crystal violet staining based assay; type: functional, cell-based
[5] = biological target: T1, L-lactate dehydrogenase A chain; assay: Inhibition of LDHA in human MIAPaCa2 cells assessed as switch of pyruvate metabolism from lactate production to oxidative phosphorylation by measuring reduction in lactate formation at 1 to 10 uM incubated for 4 hrs; type: cell-based
[6] = tested on: MIA PaCa-2; assay: Inhibition of colony formation in human MIAPaCa2 cells at 1 uM treated for 3 days and supplemented with fresh medium with out compound every 3 days measured after 15 days by crystal violet staining based assay; type: functional
[7] = biological target: T1, L-lactate dehydrogenase A chain; assay: Inhibition of LDHA in human MIAPaCa2 cells assessed as switch of pyruvate metabolism from lactate production to oxidative phosphorylation by measuring increase in oxygen consumption rate at 1 to 10 uM incubated for 4 hrs; type: cell-based
[8] = tested on: MIA PaCa-2; assay: Induction of apoptosis in human MIAPaCa2 cells assessed as viable cells at 10 uM incubated for 12 hrs by annexin V and propidium iodide staining based flow cytometry analysis (reference value: 94.85 %); type: functional; conditions: MIA PaCa-2, 12 h, read-out: Activity
[9] = tested on: MIA PaCa-2; assay: Cell cycle arrest in human MIAPaCa2 cells assessed as increase in accumulation at G2 phase incubated for 24 hrs by propidium iodide staining based flow cytometry; type: functional
[10] = tested on: MIA PaCa-2; assay: Induction of apoptosis in human MIAPaCa2 cells assessed as late apoptotic cells at 1 uM incubated for 12 hrs by annexin V and propidium iodide staining based flow cytometry analysis (reference value: 3.21 %); type: functional
[11] = tested on: MIA PaCa-2; assay: Induction of apoptosis in human MIAPaCa2 cells assessed as late apoptotic cells at 5 uM incubated for 12 hrs by annexin V and propidium iodide staining based flow cytometry analysis (reference value: 3.21 %); type: functional
[12] = tested on: MIA PaCa-2; assay: Induction of apoptosis in human MIAPaCa2 cells assessed as viable cells at 1 uM incubated for 12 hrs by annexin V and propidium iodide staining based flow cytometry analysis (reference value: 94.85 %); type: functional; conditions: MIA PaCa-2, 12 h, read-out: Activity
[13] = tested on: MIA PaCa-2; assay: Induction of apoptosis in human MIAPaCa2 cells assessed as necrotic cells at 5 uM incubated for 12 hrs by annexin V and propidium iodide staining based flow cytometry analysis (reference value: 1.54 %); type: functional
[14] = tested on: A549; assay: Antiproliferative activity against human A549 cells assessed as reduction in cell viability at incubated for 72 hrs by MTT assay; type: functional, cell-based; conditions: A549, 72 h
[15] = tested on: MIA PaCa-2; assay: Cell cycle arrest in human MIAPaCa2 cells assessed as accumulation at S phase at 1 uM incubated for 24 hrs by propidium iodide staining based flow cytometry (reference value: 12.99%); type: functional
[16] = tested on: MIA PaCa-2; assay: Cell cycle arrest in human MIAPaCa2 cells assessed as accumulation at G2 phase at 1 uM incubated for 24 hrs by propidium iodide staining based flow cytometry (reference value: 31.00%); type: functional
[17] = tested on: MIA PaCa-2; assay: Cell cycle arrest in human MIAPaCa2 cells assessed as accumulation at G1 phase at 5 uM incubated for 24 hrs by propidium iodide staining based flow cytometry (reference value: 56.01%); type: functional
[18] = tested on: MIA PaCa-2; assay: Induction of apoptosis in human MIAPaCa2 cells assessed as viable cells at 5 uM incubated for 12 hrs by annexin V and propidium iodide staining based flow cytometry analysis (reference value: 94.85 %); type: functional; conditions: MIA PaCa-2, 12 h, read-out: Activity
[19] = Toxicity in nude mouse xenografted with human MIAPaCa2 cells assessed as reduction in body weight at 10 mg/kg administered once daily for 21 days measured twice a week; type: organism-based; conditions: in vivo, 504 h
[20] = tested on: MIA PaCa-2; assay: Induction of apoptosis in human MIAPaCa2 cells assessed as late apoptotic cells at 10 uM incubated for 12 hrs by annexin V and propidium iodide staining based flow cytometry analysis (reference value: 3.21 %); type: functional
[21] = tested on: MIA PaCa-2; assay: Induction of apoptosis in human MIAPaCa2 cells assessed as early apoptotic cells at 5 uM incubated for 12 hrs by annexin V and propidium iodide staining based flow cytometry analysis (reference value: 0.40 %); type: functional
[22] = tested on: MIA PaCa-2; assay: Inhibition of colony formation in human MIAPaCa2 cells at 0.5 uM treated for 3 days and supplemented with fresh medium with out compound every 3 days measured after 15 days by crystal violet staining based assay; type: functional, cell-based
[23] = tested on: MIA PaCa-2; assay: Cell cycle arrest in human MIAPaCa2 cells assessed as accumulation at G1 phase at 10 uM incubated for 24 hrs by propidium iodide staining based flow cytometry (reference value: 56.01%); type: functional
[24] = tested on: MIA PaCa-2; assay: Cell cycle arrest in human MIAPaCa2 cells assessed as accumulation at S phase at 5 uM incubated for 24 hrs by propidium iodide staining based flow cytometry (reference value: 12.99%); type: functional
[25] = tested on: MIA PaCa-2; assay: Cell cycle arrest in human MIAPaCa2 cells assessed as accumulation at G2 phase at 10 uM incubated for 24 hrs by propidium iodide staining based flow cytometry (reference value: 31.00%); type: functional
[26] = tested on: MIA PaCa-2; assay: Induction of apoptosis in human MIAPaCa2 cells assessed as necrotic cells at 10 uM incubated for 12 hrs by annexin V and propidium iodide staining based flow cytometry analysis (reference value: 1.54 %); type: functional
[27] = biological target: T1, L-lactate dehydrogenase A chain; assay: Inhibition of LDHA in human MIAPaCa2 cells assessed as switch of pyruvate metabolism from lactate production to oxidative phosphorylation by measuring decrease in extracellular acidification rate at 1 to 10 uM incubated for 4 hrs; type: cell-based
[28] = tested on: MIA PaCa-2; assay: Antitumor activity against human MIAPaCa2 cells xenografted in nude mouse assessed as reduction in tumor growth at 10 mg/kg administered once daily for 21 days measured twice a week; type: functional, organism-based
[29] = tested on: MIA PaCa-2; assay: Induction of apoptosis in human MIAPaCa2 cells assessed as early apoptotic cells at 10 uM incubated for 12 hrs by annexin V and propidium iodide staining based flow cytometry analysis (reference value: 0.40 %); type: functional
[30] = tested on: MIA PaCa-2; assay: Induction of apoptosis in human MIAPaCa2 cells assessed as necrotic cells at 1 uM incubated for 12 hrs by annexin V and propidium iodide staining based flow cytometry analysis (reference value: 1.54 %); type: functional
[31] = tested on: MIA PaCa-2; assay: Antitumor activity against human MIAPaCa2 cells xenografted in mouse assessed as reduction in tumor weight at 10 mg/kg administered once daily for 21 days measured twice a week; type: functional, organism-based
[32] = tested on: MIA PaCa-2; assay: Cell cycle arrest in human MIAPaCa2 cells assessed as accumulation at G1 phase at 1 uM incubated for 24 hrs by propidium iodide staining based flow cytometry (reference value: 56.01%); type: functional
[33] = tested on: MIA PaCa-2; assay: Antiproliferative activity against human MIAPaCa2 cells assessed as reduction in cell viability incubated for 72 hrs by MTT assay; type: functional, cell-based; conditions: MIA PaCa-2, 72 h
[34] = tested on: MIA PaCa-2; assay: Induction of apoptosis in human MIAPaCa2 cells assessed as early apoptotic cells at 1 uM incubated for 12 hrs by annexin V and propidium iodide staining based flow cytometry analysis (reference value: 0.40 %); type: functional
[35] = tested on: MIA PaCa-2; assay: Cell cycle arrest in human MIAPaCa2 cells assessed as accumulation at G2 phase at 5 uM incubated for 24 hrs by propidium iodide staining based flow cytometry (reference value: 31.00%); type: functional

**Q.** For `O=C(c1ccco1)N1CCN(Cc2cc(=O)c(OCc3ccccc3F)co2)CC1`, which Activity [1] is on record?
**A.** 3.8%

**Q.** What about the Activity [2] of the same molecule?
**A.** Dose-dependent effect

**Q.** What about the EC50 [3] of the same molecule?
**A.** 90 nM

**Q.** And the inhibition [4]?
**A.** Dose-dependent effect

**Q.** What about the inhibition [5] of the same molecule?
**A.** Active

**Q.** And the inhibition at 1 µM [6]?
**A.** 100%

**Q.** And the inhibition [7]?
**A.** Active

**Q.** What about the viability at 10 µM [8] of the same molecule?
**A.** 55.1%

**Q.** And the Activity [9]?
**A.** Dose-dependent effect

**Q.** What about the Activity [10] of the same molecule?
**A.** 5.79%

**Q.** What about the Activity [11] of the same molecule?
**A.** 19.86%

**Q.** What about the viability at 1 µM [12] of the same molecule?
**A.** 89.8%

**Q.** What about the Activity [13] of the same molecule?
**A.** 10.1%

**Q.** What about the IC50 [14] of the same molecule?
**A.** 7800 nM

**Q.** And the Activity [15]?
**A.** 12.29%

**Q.** What about the Activity [16] of the same molecule?
**A.** 38.52%

**Q.** What about the Activity [17] of the same molecule?
**A.** 44.51%

**Q.** What about the viability at 5 µM [18] of the same molecule?
**A.** 66.6%

**Q.** And the Activity [19]?
**A.** Non-Toxic

**Q.** What about the Activity [20] of the same molecule?
**A.** 27.68%

**Q.** What about the Activity [21] of the same molecule?
**A.** 3.47%

**Q.** And the inhibition [22]?
**A.** Active

**Q.** And the Activity [23]?
**A.** 36.21%

**Q.** What about the Activity [24] of the same molecule?
**A.** 13.37%

**Q.** What about the Activity [25] of the same molecule?
**A.** 59.99%

**Q.** What about the Activity [26] of the same molecule?
**A.** 13.38%

**Q.** And the inhibition [27]?
**A.** Active

**Q.** What about the Activity [28] of the same molecule?
**A.** Active

**Q.** What about the Activity [29] of the same molecule?
**A.** 3.79%

**Q.** And the Activity [30]?
**A.** 3.23%

**Q.** What about the Activity [31] of the same molecule?
**A.** Active

**Q.** What about the Activity [32] of the same molecule?
**A.** 49.19%

**Q.** And the IC50 [33]?
**A.** 2100 nM

**Q.** What about the Activity [34] of the same molecule?
**A.** 1.14%

**Q.** And the Activity [35]?
**A.** 42.12%
